In patent US20240174728A1, “A USE OF A POLYPEPTIDE COMPOUND IN THE PREPARATION OF DRUGS FOR PREVENTING OR TREATING INFLAMMATORY BOWEL DISEASES AND RELATED INTESTINAL FIBROSIS” (Shenzhen Turier Biotech Co., Ltd., priority 2021, published 2024):
Starred links: 1 amine or outer side, 2 acyl side, 3 side chain; linkers in the order of their positions; H or OH if unused. Non-standard residues stand in square brackets, D forms with d. Groups on a side chain read outwards from the residue. Primed or numbered codes have the meaning given here. No end group written: not given here. *: point of attachment. C20 diacid = O=C(O)CCCCCCCCCCCCCCCCCCC(=O)*; Arachidoyl = CCCCCCCCCCCCCCCCCCCC(=O)*; γGlu = O=C(O)[C@H](CCC(=O)[*:2])N[*:1]; Iva = CC[C@](C)(N)C(=O)O; PEG2′ = not defined here; Aib = CC(C)(N)C(=O)O

What was measured:
[1] = system: DSS induced chronic intestinal fibrosis model of mouse; test: DSS induced chronic intestinal fibrosis model of mouse (Example 3, three cycles); type: in vivo, Balb/c mice; details: 2% DSS 5 days then water 2 weeks, 3 cycles, 120 μg/kg s.c. once/day, compared with model group; for blue staining area of colon tissues, area ratio of blue collagen fibers to colon tissue in Masson staining (FIG. 11B): #P≤0.05, ##P≤0.01; for content of serum IL-6 (FIG. 13) / content of serum MMP-8 (FIG. 13): serum at end of three cycles
Text: (§1) After 7 days of adaptive feeding, 114 Balb/c mice of 6-8 weeks age (purchased from Guangdong Medical Laboratory Animal Center, with weight approx. 16-20 g) are subjected to the experiment. Then randomly put the mice into 19 groups, with 6 mice in each group. The groups are normal group, model group, 6-TG group and polypeptide compound groups 1-16.
In the whole process, the normal group is given normal drinking water and is given subcutaneous injection PBS once every day. The model group is first given 2% DSS for 5 days and then given normal drinking water for 2 weeks. This is 1 cycle. The cycle is done 3 times. Subcutaneous injection of PBS is given once every day. The 6-TG group is first given 2% DSS for 5 days and then given normal drinking water for 2 weeks. This is 1 cycle. The cycle is done 3 times. 2 mg/kg 6-TG is given by the means of gavage once every day. The polypeptide compound groups 1-16 are first given 2% DSS for 5 days and then given normal drinking water for 2 weeks. This is 1 cycle. The cycle is done 3 times. Subcutaneous injection of 120 μg/kg polypeptide compounds 1-16 is given once every day.
During the administration period, the polypeptide compound groups 3, 8, 11, 12, 13 and 14 and the normal group, model group and 6-TG group are randomly selected, and the body weight, feces consistency and feces OB of the mice are recorded every day. The GraphPad Prism 8.3.0 software is used to plot the data into a diagram.
After completion of the 3rd cycle, the mice are dissected. The serums and colon tissues of the mice are collected. The colon and cecum are removed together. The colon length is measured. The GraphPad Prism 8.3.0 software is used to plot the data into a diagram.
The serums of the mice from the randomly selected polypeptide compound groups 3, 8, 11, 12, 13 and 14 and the normal group and model group of the present invention are used for cytokine test.
(§2) The colons of the mice from the randomly selected polypeptide compound groups 3, 8, 11, 12, 13 and 14 and the normal group and model group in the present invention are taken. Approx. 5 mm of intestinal segment is taken from the distal end of each colon and is fixed in 10% formalin. The specimens are fixed, dehydrated, wrapped in paraffin and sliced (5 μm). Then tissue HE staining, Masson staining and Fibronectin protein immunohistochemical staining are completed.

[2] = system: DSS induced acute intestinal fibrosis model of mouse; test: DSS induced acute intestinal fibrosis model of mouse (Example 2); type: in vivo, Balb/c mice; details: 3% DSS Day 1-7, compared with model group; for content of serum IL-6 (FIG. 7) / content of serum MMP-12 (FIG. 7) / collagenous fiber of colon tissues, Masson stained slice (FIG. 4A) / colon Ly-6g+ cells (neutrophile granulocyte infiltration), immunohistochemical staining (FIG. 6) / colon mucous layer α-SMA protein expression, immunohistochemical staining (FIG. 5): 120 μg/kg s.c. once/day; for content of serum IL-6 (FIG. 7) / content of serum MMP-12 (FIG. 7): 9th day serum, ##P≤0.01; for colon tissue morphology, HE stained slice (FIG. 3) / blue staining area of colon tissues, area ratio of blue collagen fibers to colon tissue in Masson staining (FIG. 4B): polypeptide 120 μg/kg s.c. or 6-TG 2 mg/kg p.o. once/day; for blue staining area of colon tissues, area ratio of blue collagen fibers to colon tissue in Masson staining (FIG. 4B): #P≤0.05
Text: The DSS in this example is purchased from MP Biomedicals (CAS No.: 9011-18-1), and the positive control compound 6-thioguanine (6-TG) is a compound based on prior art and is purchased from Shanghai Aladdin Biochemical Technology Co., Ltd. (CAS No.: 154-42-7).
as §1
Model the 19 groups of mice and administer the drug to them for 8 days. In the 8 days, the normal group is given normal drinking water and is given subcutaneous injection of PBS once every day. From Day 1 to Day 7, the model group drinks 3% DSS and is given subcutaneous injection of PBS once every day. On Day 8, 3% DSS is replaced with normal drinking water and subcutaneous injection of PBS is given once. From Day 1 to Day 7, the 6-TG group drinks 3% DSS and is given 2 mg/kg 6-TG by the means of gavage once every day. On Day 8, 3% DSS is replaced with normal drinking water and 2 mg/kg 6-TG is given by the means of gavage once. From Day 1 to Day 7, the polypeptide compound groups 1-16 drink 3% DSS and are given subcutaneous injection of 120 μg/kg polypeptide compounds 1-16 once every day. On Day 8, 3% DSS is replaced with normal drinking water and subcutaneous injection of 120 μg/kg polypeptide compounds 1-16 is given once.
In the drug administration period, the randomly selected polypeptide compound groups 3, 8, 11, 12, 13 and 14 and the normal group, model group and 6-TG group are used for testing, and the body weight, feces consistency and feces OB of the mice are recorded every day. The GraphPad Prism 8.3.0 software is used to plot the data into a diagram. Feces OB is measured by the benzidine method.
On the 9th day, all mice are killed. The serums and colon tissues of the mice are collected. The colon and cecum of the mice are removed together. The colon length is measured. The GraphPad Prism 8.3.0 software is used to plot the data into a diagram.
The serums of the mice from the randomly selected polypeptide compound groups 3, 8, 11, 12, 13 and 14 of the present invention and the normal group and model group are used for cytokine test.
as §2, with “normal group, model” for “normal”, “6-TG” for “model”, “Masson staining, α-SMA α-SMA protein immunohistochemical” for “Masson”, “Ly-6g” for “Fibronectin”

Row | Substance | collagenous fiber of colon tissues, Masson stained slice (FIG. 11A) [1] | colon mucous layer Fibronectin protein expression, immunohistochemical staining (FIG. 12) [1] | colon tissue morphology, HE stained slice (FIG. 10) [1] | blue staining area of colon tissues, area ratio of blue collagen fibers to colon tissue in Masson staining (FIG. 11B) [1] | content of serum IL-6 (FIG. 13) [1] | content of serum MMP-8 (FIG. 13) [1] | content of serum IL-6 (FIG. 7) [2] | content of serum MMP-12 (FIG. 7) [2] | collagenous fiber of colon tissues, Masson stained slice (FIG. 4A) [2] | colon Ly-6g+ cells (neutrophile granulocyte infiltration), immunohistochemical staining (FIG. 6) [2] | colon mucous layer α-SMA protein expression, immunohistochemical staining (FIG. 5) [2] | colon tissue morphology, HE stained slice (FIG. 3) [2] | blue staining area of colon tissues, area ratio of blue collagen fibers to colon tissue in Masson staining (FIG. 4B) [2]
1 | His-Aib-Gln-Gly-Thr-Phe-Thr-Ser-Asp-Lys(PEG2-PEG2-CO(CH2)18CH3)-Ser-Lys-Tyr-Leu-Asp-Glu-Arg-Ala-Ala-Gln-Asp-Phe-Iva-Gln-Trp-Leu-Leu-Asp-Gly-Gly-Pro-Ser-Ser-Gly-Aib-Pro-Pro-Pro-Ser-NH2 (H[Aib]QGTFTSDK([PEG2′-PEG2′-Arachidoyl])SKYLDERAAQDF[Iva]QWLLDGGPSSG[Aib]PPPS-NH2; not fully specified; printed as His-Aib-Gln-Gly-Thr-Phe-Thr-Ser-Asp-Lys(PEG2-PEG2-CO(CH2)18CH3)-Ser-Lys-Tyr-Leu-Asp-Glu-Arg-Ala-Ala-Gln-Asp-Phe-Iva-Gln-Trp-Leu-Leu-Asp-Gly-Gly-Pro-Ser-Ser-Gly-Aib-Pro-Pro-Pro-Ser-NH2) [Compound 11] | noticeably decrease | clearly decreased | become intact | noticeably decrease | clearly decreases | clearly decreases | clearly decreases | clearly decreases | noticeably decrease | clearly decrease | clearly decreased | become intact | noticeably decrease
2 | His-Aib-Gln-Gly-Thr-Phe-Thr-Ser-Asp-Lys(PEG2-PEG2-γGlu-CO(CH2)18CO2H)-Ser-Lys-Tyr-Leu-Asp-Glu-Arg-Ala-Ala-Gln-Asp-Phe-Iva-Gln-Trp-Leu-Leu-Asp-Gly-Gly-Pro-Ser-Ser-Gly-Aib-Pro-Pro-Pro-Ser-NH2 (H[Aib]QGTFTSDK([PEG2′-PEG2′-γGlu-C20 diacid])SKYLDERAAQDF[Iva]QWLLDGGPSSG[Aib]PPPS-NH2) [Compound 8] | noticeably decrease | clearly decreased | become intact | noticeably decrease | clearly decreases | clearly decreases | clearly decreases | clearly decreases | noticeably decrease | clearly decrease | clearly decreased | become intact | noticeably decrease
